# Measured values published in ChEMBL document CHEMBL5649169 (ChemMedChem, 2018).
# Experiments:
# [1] = target: Low molecular weight phosphotyrosine protein phosphatase (Homo sapiens) (UniProt P24666)
# [2] = target: Adenosylhomocysteinase (Homo sapiens) (UniProt P23526)
# [3] = target: Apoptosis-inducing factor 1, mitochondrial (Homo sapiens) (UniProt O95831)
# [4] = target: Dolichyl pyrophosphate Glc1Man9GlcNAc2 alpha-1,3-glucosyltransferase (Homo sapiens) (UniProt Q9BVK2)
# [5] = target: Acidic leucine-rich nuclear phosphoprotein 32 family member B (Homo sapiens) (UniProt Q92688)
# [6] = target: Argininosuccinate synthase (Homo sapiens) (UniProt P00966)
# [7] = target: ATP synthase peripheral stalk subunit d, mitochondrial (Homo sapiens) (UniProt O75947)
# Chain of ATP synthase peripheral stalk subunit d, mitochondrial (Homo sapiens) (O75947 whole entry): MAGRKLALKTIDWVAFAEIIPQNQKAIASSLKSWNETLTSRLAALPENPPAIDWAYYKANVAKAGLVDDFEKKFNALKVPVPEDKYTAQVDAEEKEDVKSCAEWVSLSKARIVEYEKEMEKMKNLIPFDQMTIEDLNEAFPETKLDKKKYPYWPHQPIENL
# [8] = target: Cytochrome c oxidase subunit 5B, mitochondrial (Homo sapiens) (UniProt P10606)
# Chain of Cytochrome c oxidase subunit 5B, mitochondrial (Homo sapiens) (P10606 whole entry): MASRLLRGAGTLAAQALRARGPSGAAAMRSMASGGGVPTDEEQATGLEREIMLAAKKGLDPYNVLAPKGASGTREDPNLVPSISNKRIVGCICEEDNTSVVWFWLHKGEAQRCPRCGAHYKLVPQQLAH
# [9] = target: Cytochrome c oxidase subunit 6C (Homo sapiens) (UniProt P09669)
# Chain of Cytochrome c oxidase subunit 6C (Homo sapiens) (P09669 whole entry): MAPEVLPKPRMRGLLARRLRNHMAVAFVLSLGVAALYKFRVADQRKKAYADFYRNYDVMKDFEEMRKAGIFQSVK
# [10] = target: Crk-like protein (Homo sapiens) (UniProt P46109)
# Chain of Crk-like protein (Homo sapiens) (P46109 whole entry): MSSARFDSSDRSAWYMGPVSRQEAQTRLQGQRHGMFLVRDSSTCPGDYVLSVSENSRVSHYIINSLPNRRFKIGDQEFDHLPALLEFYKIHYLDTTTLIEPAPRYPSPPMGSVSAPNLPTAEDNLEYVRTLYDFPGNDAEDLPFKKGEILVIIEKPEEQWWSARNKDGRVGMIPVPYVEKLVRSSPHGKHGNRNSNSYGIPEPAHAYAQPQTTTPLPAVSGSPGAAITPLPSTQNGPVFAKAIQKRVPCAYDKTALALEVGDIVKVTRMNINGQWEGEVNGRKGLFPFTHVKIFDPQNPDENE
# [11] = target: Dipeptidyl peptidase 1 (Homo sapiens) (UniProt P53634)
# [12] = target: Cytoplasmic FMR1-interacting protein 1 (Homo sapiens) (UniProt Q7L576)
# [13] = target: Drebrin-like protein (Homo sapiens) (UniProt Q9UJU6)
# [14] = target: Deoxycytidine kinase (Homo sapiens) (UniProt P27707)
# Chain of Deoxycytidine kinase (Homo sapiens) (P27707 whole entry, looked up): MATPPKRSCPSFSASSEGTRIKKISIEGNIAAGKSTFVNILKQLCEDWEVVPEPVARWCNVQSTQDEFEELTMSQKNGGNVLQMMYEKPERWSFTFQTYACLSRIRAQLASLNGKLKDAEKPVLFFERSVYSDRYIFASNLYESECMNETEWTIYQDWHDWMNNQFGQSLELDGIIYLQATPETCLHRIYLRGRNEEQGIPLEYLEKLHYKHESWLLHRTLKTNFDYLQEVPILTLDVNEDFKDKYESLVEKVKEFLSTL
# [15] = target: 3-beta-hydroxysteroid-Delta(8),Delta(7)-isomerase (Homo sapiens) (UniProt Q15125)
# [16] = target: Cyclin-G-associated kinase (Homo sapiens) (UniProt O14976)
# [17] = target: Gem-associated protein 5 (Homo sapiens) (UniProt Q8TEQ6)
# [18] = target: Heterogeneous nuclear ribonucleoprotein A0 (Homo sapiens) (UniProt Q13151)
# [19] = target: Isoleucine--tRNA ligase, cytoplasmic (Homo sapiens) (UniProt P41252)
# [20] = target: Interleukin enhancer-binding factor 2 (Homo sapiens) (UniProt Q12905)
# Chain of Interleukin enhancer-binding factor 2 (Homo sapiens) (Q12905 whole entry): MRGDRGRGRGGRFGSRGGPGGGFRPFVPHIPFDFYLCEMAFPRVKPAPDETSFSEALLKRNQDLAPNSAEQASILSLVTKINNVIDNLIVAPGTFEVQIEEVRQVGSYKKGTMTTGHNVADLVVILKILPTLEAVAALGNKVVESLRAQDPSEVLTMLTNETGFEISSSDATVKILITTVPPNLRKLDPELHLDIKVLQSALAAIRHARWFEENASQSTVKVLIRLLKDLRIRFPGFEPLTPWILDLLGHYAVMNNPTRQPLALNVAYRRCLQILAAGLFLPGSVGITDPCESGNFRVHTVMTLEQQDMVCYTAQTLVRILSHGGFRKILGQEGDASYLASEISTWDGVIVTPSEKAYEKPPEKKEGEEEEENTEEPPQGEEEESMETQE
# [21] = target: Phosphatidylinositol 3,4,5-trisphosphate 5-phosphatase 2 (Homo sapiens) (UniProt O15357)
# [22] = target: Importin subunit alpha-1 (Homo sapiens) (UniProt P52292)
# [23] = target: Mitogen-activated protein kinase 1 (Homo sapiens) (UniProt P28482)
# [24] = target: Myosin light polypeptide 6 (Homo sapiens) (UniProt P60660)
# [25] = target: Nucleoside diphosphate kinase A (Homo sapiens) (UniProt P15531)
# Homo sapiens [26] = species: Homo sapiens
# [27] = target: Bifunctional phosphoribosylaminoimidazole carboxylase/phosphoribosylaminoimidazole succinocarboxamide synthetase (Homo sapiens) (UniProt P22234)
# Chain of Bifunctional phosphoribosylaminoimidazole carboxylase/phosphoribosylaminoimidazole succinocarboxamide synthetase (Homo sapiens) (P22234 whole entry): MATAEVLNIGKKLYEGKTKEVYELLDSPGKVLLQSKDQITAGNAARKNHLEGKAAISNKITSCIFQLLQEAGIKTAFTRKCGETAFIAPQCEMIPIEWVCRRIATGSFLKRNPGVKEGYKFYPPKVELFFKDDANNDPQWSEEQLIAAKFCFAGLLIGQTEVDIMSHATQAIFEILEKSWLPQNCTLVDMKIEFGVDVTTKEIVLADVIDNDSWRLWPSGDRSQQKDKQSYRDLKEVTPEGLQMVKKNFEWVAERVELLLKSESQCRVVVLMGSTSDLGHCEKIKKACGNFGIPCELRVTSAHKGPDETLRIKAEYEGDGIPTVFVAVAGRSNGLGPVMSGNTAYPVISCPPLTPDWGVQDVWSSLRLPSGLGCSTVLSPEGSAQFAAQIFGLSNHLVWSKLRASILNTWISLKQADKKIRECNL
# [28] = target: Sister chromatid cohesion protein PDS5 homolog A (Homo sapiens) (UniProt Q29RF7)
# [29] = target: D-3-phosphoglycerate dehydrogenase (Homo sapiens) (UniProt O43175)
# [30] = target: Phosphorylase kinase beta subunit (Homo sapiens) (UniProt Q93100)
# [31] = target: Phosphatidylinositol 5-phosphate 4-kinase type-2 alpha (Homo sapiens) (UniProt P48426)
# [32] = target: Phosphatidylinositol transfer protein beta isoform (Homo sapiens) (UniProt P48739)
# [33] = target: Membrane-associated tyrosine- and threonine-specific cdc2-inhibitory kinase (Homo sapiens) (UniProt Q99640)
# Chain of Membrane-associated tyrosine- and threonine-specific cdc2-inhibitory kinase (Homo sapiens) (Q99640 whole entry): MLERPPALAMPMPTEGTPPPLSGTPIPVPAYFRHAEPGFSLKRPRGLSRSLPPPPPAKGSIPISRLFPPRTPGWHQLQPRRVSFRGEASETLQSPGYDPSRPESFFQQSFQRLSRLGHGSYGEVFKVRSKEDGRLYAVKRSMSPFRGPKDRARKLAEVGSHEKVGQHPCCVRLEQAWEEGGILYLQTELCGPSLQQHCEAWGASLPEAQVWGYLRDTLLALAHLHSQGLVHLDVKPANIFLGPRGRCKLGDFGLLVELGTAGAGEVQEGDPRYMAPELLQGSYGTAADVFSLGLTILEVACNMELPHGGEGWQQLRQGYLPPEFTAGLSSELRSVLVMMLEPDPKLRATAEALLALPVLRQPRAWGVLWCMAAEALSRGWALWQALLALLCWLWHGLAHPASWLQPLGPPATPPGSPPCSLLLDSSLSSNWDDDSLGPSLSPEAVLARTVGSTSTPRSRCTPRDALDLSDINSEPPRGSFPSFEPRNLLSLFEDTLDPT
# [34] = target: Protein kinase C delta type (Homo sapiens) (UniProt Q05655)
# [35] = target: Glycogen phosphorylase, liver form (Homo sapiens) (UniProt P06737)
# Chain of Glycogen phosphorylase, liver form (Homo sapiens) (P06737 whole entry): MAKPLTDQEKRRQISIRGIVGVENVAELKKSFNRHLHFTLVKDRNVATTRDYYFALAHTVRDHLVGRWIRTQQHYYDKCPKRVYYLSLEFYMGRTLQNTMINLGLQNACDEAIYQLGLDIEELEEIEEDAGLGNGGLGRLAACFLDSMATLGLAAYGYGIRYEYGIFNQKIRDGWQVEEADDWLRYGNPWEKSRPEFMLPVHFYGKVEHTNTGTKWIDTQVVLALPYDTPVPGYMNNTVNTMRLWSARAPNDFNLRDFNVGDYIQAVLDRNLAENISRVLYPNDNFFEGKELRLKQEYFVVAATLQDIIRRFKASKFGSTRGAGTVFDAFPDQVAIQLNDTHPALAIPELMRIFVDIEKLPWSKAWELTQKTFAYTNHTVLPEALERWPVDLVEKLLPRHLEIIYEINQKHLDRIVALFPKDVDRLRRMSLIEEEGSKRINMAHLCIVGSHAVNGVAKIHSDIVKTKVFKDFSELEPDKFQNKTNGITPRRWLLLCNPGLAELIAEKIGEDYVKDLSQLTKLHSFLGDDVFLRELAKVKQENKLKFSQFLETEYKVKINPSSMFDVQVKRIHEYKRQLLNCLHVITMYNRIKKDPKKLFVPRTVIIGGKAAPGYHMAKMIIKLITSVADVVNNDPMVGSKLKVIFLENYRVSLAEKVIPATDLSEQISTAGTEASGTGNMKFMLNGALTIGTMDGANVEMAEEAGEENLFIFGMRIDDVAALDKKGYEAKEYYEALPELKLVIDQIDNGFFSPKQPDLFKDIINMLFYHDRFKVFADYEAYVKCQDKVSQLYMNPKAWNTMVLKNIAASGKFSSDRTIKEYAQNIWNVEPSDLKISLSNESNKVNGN
# Homo sapiens [36] = species: Homo sapiens; remark: listed apart in the source
# [37] = target: Protein RCC2 (Homo sapiens) (UniProt Q9P258)
# Chain of Protein RCC2 (Homo sapiens) (Q9P258 whole entry): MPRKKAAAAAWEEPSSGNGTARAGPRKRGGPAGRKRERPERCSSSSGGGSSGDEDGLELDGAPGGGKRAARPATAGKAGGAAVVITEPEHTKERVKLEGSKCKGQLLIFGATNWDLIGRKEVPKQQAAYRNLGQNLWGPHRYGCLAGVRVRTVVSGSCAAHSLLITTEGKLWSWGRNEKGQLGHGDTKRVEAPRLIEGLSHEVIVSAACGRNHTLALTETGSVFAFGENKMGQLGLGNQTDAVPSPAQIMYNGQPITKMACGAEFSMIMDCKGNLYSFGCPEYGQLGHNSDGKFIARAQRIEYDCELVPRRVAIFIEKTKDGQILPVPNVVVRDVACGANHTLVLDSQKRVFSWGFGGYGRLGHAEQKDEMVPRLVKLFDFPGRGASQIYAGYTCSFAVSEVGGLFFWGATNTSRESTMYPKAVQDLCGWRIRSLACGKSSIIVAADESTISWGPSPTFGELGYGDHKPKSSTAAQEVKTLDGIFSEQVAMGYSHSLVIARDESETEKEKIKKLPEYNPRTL
# [38] = target: Large ribosomal subunit protein uL16 (Homo sapiens) (UniProt P27635)
# [39] = target: Small ribosomal subunit protein uS5 (Homo sapiens) (UniProt P15880)
# Homo sapiens [40] = species: Homo sapiens; remark: listed apart in the source
# [41] = target: Small ribosomal subunit protein eS4, X isoform (Homo sapiens) (UniProt P62701)
# [42] = target: Translocon-associated protein subunit gamma (Homo sapiens) (UniProt Q9UNL2)
# Chain of Translocon-associated protein subunit gamma (Homo sapiens) (Q9UNL2 whole entry): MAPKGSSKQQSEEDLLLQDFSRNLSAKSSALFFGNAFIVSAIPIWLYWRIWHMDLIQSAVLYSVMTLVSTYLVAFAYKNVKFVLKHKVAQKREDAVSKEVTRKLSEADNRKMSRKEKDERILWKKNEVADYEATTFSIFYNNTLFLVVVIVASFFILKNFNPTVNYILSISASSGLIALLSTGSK
# [43] = target: Tubulin beta-3 chain (Homo sapiens) (UniProt Q13509)
# [44] = target: Unhealthy ribosome biogenesis protein 2 homolog (Homo sapiens) (UniProt Q14146)
# [45] = target: WD repeat-containing protein 1 (Homo sapiens) (UniProt O75083)
# [46] = target: Tyrosine--tRNA ligase, cytoplasmic (Homo sapiens) (UniProt P54577)
# Chain of Tyrosine--tRNA ligase, cytoplasmic (Homo sapiens) (P54577 whole entry): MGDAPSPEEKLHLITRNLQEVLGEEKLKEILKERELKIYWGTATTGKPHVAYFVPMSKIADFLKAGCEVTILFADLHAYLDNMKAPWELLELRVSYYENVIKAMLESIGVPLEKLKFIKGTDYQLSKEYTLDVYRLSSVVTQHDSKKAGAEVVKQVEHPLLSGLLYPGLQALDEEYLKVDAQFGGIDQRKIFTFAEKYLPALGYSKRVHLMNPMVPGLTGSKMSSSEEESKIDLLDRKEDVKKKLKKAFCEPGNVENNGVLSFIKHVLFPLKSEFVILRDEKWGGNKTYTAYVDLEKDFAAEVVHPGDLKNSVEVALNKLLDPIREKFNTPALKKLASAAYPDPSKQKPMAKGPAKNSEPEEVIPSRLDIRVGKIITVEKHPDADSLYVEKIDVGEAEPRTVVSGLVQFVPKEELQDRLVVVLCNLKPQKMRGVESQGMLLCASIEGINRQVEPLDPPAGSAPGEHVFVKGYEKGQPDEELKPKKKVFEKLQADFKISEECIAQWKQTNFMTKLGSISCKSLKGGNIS
# [47] = target: 14-3-3 protein theta (Homo sapiens) (UniProt P27348)
# Note: assay method not described here.
# Chain of Dolichyl pyrophosphate Glc1Man9GlcNAc2 alpha-1,3-glucosyltransferase (Homo sapiens) (Q9BVK2 whole entry): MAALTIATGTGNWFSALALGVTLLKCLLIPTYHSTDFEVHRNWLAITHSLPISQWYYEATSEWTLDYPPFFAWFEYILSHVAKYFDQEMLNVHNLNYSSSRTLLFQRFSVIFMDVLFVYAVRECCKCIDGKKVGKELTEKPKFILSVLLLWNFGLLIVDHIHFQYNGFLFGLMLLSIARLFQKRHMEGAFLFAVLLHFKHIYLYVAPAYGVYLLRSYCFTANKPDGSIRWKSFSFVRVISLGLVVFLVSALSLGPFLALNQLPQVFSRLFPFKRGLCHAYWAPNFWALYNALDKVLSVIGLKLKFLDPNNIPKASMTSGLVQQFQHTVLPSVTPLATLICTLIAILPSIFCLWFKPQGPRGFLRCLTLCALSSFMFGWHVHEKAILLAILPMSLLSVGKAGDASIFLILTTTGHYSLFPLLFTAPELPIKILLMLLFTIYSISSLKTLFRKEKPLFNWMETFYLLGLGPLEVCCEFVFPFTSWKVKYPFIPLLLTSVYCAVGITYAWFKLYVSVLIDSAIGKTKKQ
compound,measurement,setting,value
Cc1ccc(C(=O)Nc2cccc(C(F)(F)F)c2)cc1Nc1nc(-c2cccnc2)nc2c1cnn2C,ED50,[1],67200 nM
same,ED50,[2],4940 nM
same,ED50,[3],5.38 nM
same,ED50,[4],37.7 nM
same,ED50,[5],5150 nM
same,ED50,[6],5020 nM
same,ED50,[7],72.7 nM
same,ED50,[8],39400 nM
same,ED50,[9],16200 nM
same,ED50,[10],84.3 nM
same,ED50,[11],11.3 nM
same,ED50,[12],5.64 nM
same,ED50,[13],133 nM
same,ED50,[14],5000 nM
same,ED50,[15],14.8 nM
same,ED50,[16],4020 nM
same,ED50,[17],105000 nM
same,ED50,[18],4390 nM
same,ED50,[19],94.4 nM
same,ED50,[20],4540 nM
same,ED50,[21],364 nM
same,ED50,[22],7330 nM
same,ED50,[23],27 nM
same,ED50,[24],5790 nM
same,ED50,[25],7650 nM
same,ED50,Homo sapiens [26],18 nM
same,ED50,[27],20.5 nM
same,ED50,[28],978 nM
same,ED50,[29],9.45 nM
same,ED50,[30],12800 nM
same,ED50,[31],99.3 nM
same,ED50,[32],1710 nM
same,ED50,[33],9.95 nM
same,ED50,[34],3810 nM
same,ED50,[35],2.39 nM
same,ED50,Homo sapiens [36],3520 nM
same,ED50,[37],92200 nM
same,ED50,[38],76.8 nM
same,ED50,[39],80.4 nM
same,ED50,Homo sapiens [40],3750 nM
same,ED50,[41],29.6 nM
same,ED50,[42],12700 nM
same,ED50,[43],3060 nM
same,ED50,[44],2880 nM
same,ED50,[45],2690 nM
same,ED50,[46],157 nM
same,ED50,[47],21.1 nM
Cc1ccc(C(=O)Nc2cccc(C(F)(F)F)c2)cc1Nc1nc(-c2cccnc2)nc2nn(C)cc12,ED50,[1],39.5 nM
same,ED50,[2],53.3 nM
same,ED50,[3],182 nM
same,ED50,[4],72900 nM
same,ED50,[5],10100 nM
same,ED50,[6],57.9 nM
same,ED50,[7],55.7 nM
same,ED50,[8],15000 nM
same,ED50,[9],12 nM
same,ED50,[10],10200 nM
same,ED50,[11],1880 nM
same,ED50,[12],2750 nM
same,ED50,[13],5.9 nM
same,ED50,[14],3.09 nM
same,ED50,[15],12.3 nM
same,ED50,[16],2320 nM
same,ED50,[17],232 nM
same,ED50,[18],17.4 nM
same,ED50,[19],4570 nM
same,ED50,[20],13.5 nM
same,ED50,[21],1010 nM
same,ED50,[22],5.66 nM
same,ED50,[23],47.1 nM
same,ED50,[24],81.5 nM
same,ED50,[25],2020 nM
same,ED50,Homo sapiens [26],55.8 nM
same,ED50,[27],54.8 nM
same,ED50,[28],2820 nM
same,ED50,[29],15000 nM
same,ED50,[30],384 nM
same,ED50,[31],83400 nM
same,ED50,[32],1130 nM
same,ED50,[33],84.6 nM
same,ED50,[34],0.136 nM
same,ED50,[35],5790 nM
same,ED50,Homo sapiens [36],43200 nM
same,ED50,[37],37900 nM
same,ED50,[38],5790 nM
same,ED50,[39],1830 nM
same,ED50,Homo sapiens [40],285 nM
same,ED50,[41],515 nM
same,ED50,[42],50.5 nM
same,ED50,[43],106 nM
same,ED50,[44],2120 nM
same,ED50,[45],81.7 nM
same,ED50,[46],57.2 nM
same,ED50,[47],1350 nM
